{
  "source": "paper PMC6458850",
  "about": "“CXXC5 mediates growth plate senescence and is a target for enhancement of longitudinal bone growth” (Life Science Alliance, 2019)",
  "key": {"[1]": {"tested_on": "growth plates of proximal tibiae", "assay": "Growth plate senescence and longitudinal bone growth in KY19382-treated mice", "assay_type": "in vivo, mouse", "experimental": "Figure 5. The effects of KY19382 on growth plate senescence and longitudinal bone growth. (A-I) KY19382 (0.1 mg/kg) was administered to 7-wk-old mice (A-E) or 3-wk-old mice (F-I) by daily intraperitoneal injection for 2 wk (n = 7). H&E staining, IHC analyses with the indicated antibodies, and TRAP staining in the growth plates of proximal tibiae treated with KY19382 (A, F). Quantitative analyses of the cell number per column (mean ± SEM, n = 7; t test, ***P < 0.0005) (B) or the height (mean ± SEM, n = 7; t test, ***P < 0.0005) (G) of resting zone and proliferative zone (RZ&PZ) and hypertrophic zone (HZ) in the growth plates of proximal tibiae. Quantitative analyses of BrdU-positive cells in the growth plates (mean ± SEM, n = 5; t test, ***P < 0.0005) (C, H). Quantitative analyses of the number of TRAP-positive foci along 250 μm of the cartilage/bone interface (mean ± SEM, n = 3; t test, *P < 0.05) (D, I). Immunoblot analyses with the indicated antibodies in the growth plate of proximal tibiae of mice treated with KY19382 (E). Scale bars, 50 μm. (J) 3-wk-old mice were intraperitoneally injected with KY19382 (0.1 mg/kg) daily for 10 wk. Representative radiographs are shown (left), and tibial length was measured (right) (mean ± SEM, n = 7-15; t test, ***P < 0.0005). The area within the dashed lines indicates the growth plate zone. n.s., no significance; TRAP, tartrate-resistant acid phosphatase. Cxxc5^-/- mice were established in a previous study ([Kim et al, 2015]). To manipulate growth plate senescence by estrogen, 3-wk-old Cxxc5^+/+ and Cxxc5^-/- male mice received weekly i.m. injections of either 70 μg/kg estradiol (E2) cypionate (Sigma-Aldrich) or vehicle (cottonseed oil) for 3 wk. To investigate the effects of KY19382 treatment on longitudinal bone growth, C57BL/6 male mice were purchased from KOATECH (Gyeonggido, Korea). KY19382 (0.1 mg/kg) was administered daily by i.p. injection to 3- and 7-wk-old mice for 2 wk or to 3-wk-old mice for 10 wk. For BrdU labeling experiments, the mice were i.p. injected with 50 mg/kg BrdU (Sigma-Aldrich) before 24 h to euthanize. All animal procedures were approved by the Institutional Animal Care and Use Committee of Yonsei University (Korea) and conducted based on the guidelines of the Korean Food and Drug Administration. Plain radiographs were taken using an X-ray apparatus (KODAK DXS 4000 Pro SYSTEM; Carestream Health). The tissues were fixed in 4% PFA, decalcified in 10% EDTA (pH 7.4), dehydrated, embedded in paraffin, and sectioned to 4-μm thickness (Leica Microsystems). The tissues sections were rehydrated and used for further analyses, including H&E, TRAP, and IHC staining. To perform IHC staining, the sections were incubated with citrate buffer (pH 6.0) at 80°C for 30 min, with 0.05% trypsin working solution (pH 7.8) for 30 min at 37°C, or with 0.5% pepsin (Sigma-Aldrich) for 15 min at 37°C. Then, the sections were blocked with 5% normal goat serum (Vector Laboratories) and 0.3% Triton X-100 in PBS for 1 h at room temperature. For 3,3'-diaminobensidine (DAB) staining, the sections were incubated with 0.345% H2O2 for 15 min. Before incubating the sections with mouse primary antibody, mouse IgG was blocked using a M.O.M kit (Vector Laboratories). The sections were incubated at 4°C overnight with the following primary antibodies: anti-β-catenin (#610154; 1:50; BD Bioscience), anti-CXXC5 (1:200; lab-made) anti-BrdU ([…]; 1:200; DAKO), anti-COL2A1 (PA5-11462; 1:100; Thermo Fisher Scientific), anti-Ki67 (ab15580; 1:200; Abcam), and anti-RUNX2 (ab23981; 1:200; Abcam). Then, the sections were incubated at room temperature for 1 h with biotinylated anti-mouse (BA-9200; 1:200; Vector Laboratories) or biotinylated anti-rabbit (BA-1000; 1:200; Vector Laboratories) secondary antibodies. The sections were then incubated in avidin-biotin complex solutions (Vector Laboratories), stained with a DAB kit (Vector Laboratories) for 3-30 min, and counterstained with methyl green (Sigma-Aldrich). […]"}, "HEK293-TOP cells": {"tested_on": "HEK293-TOP cells", "assay": "TOPFlash Wnt reporter assay", "assay_type": "cell-based", "settings": "18 h", "experimental": "Figure 4. Identification of functional properties of KY19382 in activating the Wnt/β-catenin pathway. (A) Chemical structure of KY19382. (B) In vitro binding assay to analyze the effect of KY19382 on CXXC5–DVL interaction (mean ± SEM, n = 3). The IC50 value was determined from the dose–response curve. (C) In vitro kinase assay to analyze the effect of KY19382 on kinase activity of GSK3β (mean ± SEM, n = 3). The IC50 value was determined from the dose–response curve. (D) Analyses of TOPFlash activity in HEK293 reporter cells grown with the indicated concentrations of KY19382 for 18 h (mean ± SEM, n = 4; t test, **P < 0.005 and ***P < 0.0005 versus DMSO-treated control). (E) Immunoblot analyses with the indicated antibodies in ATDC5 cells treated with I3O or KY19382 for 24 h. (F) Immunoblot analyses of whole cell lysates immunoprecipitated with anti-Myc in ATDC5 cells treated with 0.1 μM KY19382 for 4 h after transfection with pCMV-FLAG-DVL1 and pcDNA3.1-CXXC5-Myc. (G) Immunocytochemical staining (left) and quantitative analyses (mean ± SEM, n = 3; t test, **P < 0.005) (right) for β-catenin in ATDC5 cells treated with 0.1 μM KY19382 for 48 h. Scale bar, 100 μm.\nHEK293-TOP cells were seeded into each well of a 24-well plate. The cells were treated with individual compounds at indicated concentration and cultured for 18 h. […]"}, "[2]": {"settings": "3-wk-old mice, 0.1 mg/kg i.p. daily for 2 wk"}, "[3]": {"settings": "7-wk-old mice, 0.1 mg/kg i.p. daily for 2 wk"}},
  "data": [
    {"smiles": "CON=C1C(=C2C(=O)Nc3cc(Cl)c(Cl)cc32)Nc2ccccc21", "note": "[KY19382, 5,6-dichloroindirubin-3′-methoxime]", "values": [
      {"measurement": "BrdU-positive cells in growth plate", "setting": "[1]; [2]", "value": "elevated"},
      {"measurement": "height of each growth plate zone", "setting": "[1]; [2]", "value": "elevated"},
      {"measurement": "number of TRAP-positive foci in the growth plate/trabecular interface", "setting": "[1]; 3-wk-old mice, 0.1 mg/kg i.p. daily for 2 wk, vs vehicle", "value": "not different"},
      {"measurement": "length of tibiae", "setting": "[1]; 3-wk-old mice, 0.1 mg/kg i.p. daily for 10 wk, vs vehicle", "value": "significantly increased"},
      {"measurement": "nuclear β-catenin in growth plate chondrocytes", "setting": "[1]; [3]", "value": "dramatically increased"},
      {"measurement": "numbers of proliferative and hypertrophic chondrocytes per column", "setting": "[1]; [3]", "value": "increased numbers"},
      {"measurement": "total growth plate height (COL2A1 immunostaining)", "setting": "[1]; [3]", "value": "significantly increased"},
      {"measurement": "TRAP-positive foci at cartilage/bone interface", "setting": "[1]; 7-wk-old mice, 0.1 mg/kg i.p. daily for 2 wk, vs vehicle", "value": "elevated"},
      {"measurement": "TOPFlash Wnt reporter activity", "setting": "HEK293-TOP cells", "value": "strong enhancement"}
    ]}
  ]
}
